Data reported in patent US20260124168A1, “OIL COMPOSITION COMPRISING CAPROIC ACID RESIDUES, UNSATURATED FATTY ACID RESIDUES AND SATURATED FATTY ACID RESIDUES” (AAK AB (PUBL), priority 2022, published 2026).

Tests used:
IL-10 = IL-10 mRNA expression in LPS-treated hMADS derived adipocytes (real-time PCR); assay type: cell-based, human; conditions: butyric acid 10^−4M, hexanoic acid 10^−5M, 24 h then 5 ug/mL LPS 24 h, relative to LPS without short chain fatty acids, FIG. 10
Method: In the experiment, adipose tissue-derived stem cells were pre-treated with butyric acid, caproic acid, and a combination thereof after which lipopolysaccharide (LPS) was added to induce (low-grade) inflammation. […] Pooled human multipotent adipose tissue-derived stem cells (hMADS), were differentiated into the adipogenic lineage, creating a human white adipocyte model. hMADS cells were derived from male human donors with a large range in BMI (20-40 kg/m2) and glucometabolic status, and age between 35 and 70 years of age. Cells were seeded at a density of 2,000 cells/cm2 and kept in proliferation medium containing Dulbecco's modified Eagle's medium (DMEM), Ham's F-12 Nutrient Mixture (Gibco, Bleiswijk, Netherlands), 10% fetal bovine serum (Bodinco BV, Alkmaar, NL, Netherlands), 50 U/ml penicillin (Gibco), and 50 μg/ml of streptomycin (Gibco)]. At 70-80% confluence, 250 μmol/L IBMX (Sigma, St. Louis, MI, USA) and 5 μmol/L rosiglitazone (Enzo Life Sciences, Raamsdonksveer, Netherlands) were added to induce adipogenic differentiation. Experiments were carried out between days 12 and 14 of the differentiation. To study the effect of butyric acid (10^-4M) and hexanoic acid (10^-5M) on the expression of the anti-inflammatory cytokine IL-10, hMADS derived adipocytes were incubated with butyric acid, hexanoic acid or the combination thereof. […]

IL-6 = IL-6 production by LPS-treated hMADS adipocytes (ECL immunoassay); assay type: cell-based, human; conditions: fatty acid 10-4 to 10-9 mol 24 h then 5 ug/mL LPS 24 h, versus LPS only, all tested concentrations, FIG. 8/9
Method: An experiment was carried out to ascertain the extent to which butyric acid and caproic acid effect the production of the proinflammatory cytokine IL-6 in an inflammatory condition.
Pooled human multipotent adipose tissue-derived stem cells (hMADS), were differentiated into the adipogenic lineage, creating a human white adipocyte model. hMADS cells were derived from male human donors with a large range in BMI (20-40 kg/m2) and glucometabolic status, and age between 35 and 70 years of age. Cells were seeded at a density of 2,000 cells/cm2 and kept in a proliferation medium containing Dulbecco's modified Eagle's medium (DMEM), Ham's F-12 Nutrient Mixture (Gibco, Bleiswijk, Netherlands), 10% fetal bovine serum (Bodinco BV, Alkmaar, NL, Netherlands), 50 U/ml penicillin (Gibco), and 50 μg/ml of streptomycin (Gibco)].
At 70-80% confluence, 250 μmol/L IBMX (Sigma, St. Louis, MI, USA) and 5 μmol/L rosiglitazone (Enzo Life Sciences, Raamsdonksveer, Netherlands) were added to induce adipogenic differentiation. Experiments were carried out between days 12 and 14 of the differentiation. […]
IL-6 cytokine levels in the culture supernatant were evaluated using a electrochemiluminescence (ECL) immunoassay (MSD; Rockville, Maryland) according to the manufacturers protocol. […]

## CCCC(=O)O [butyric acid]
IL-10
  expression of IL-10 (mRNA): small increase
IL-6
  concentration of IL-6: lower

## CCCCCC(=O)O [hexanoic acid]
IL-10
  expression of IL-10 (mRNA): small increase
IL-6
  concentration of IL-6: lower
